Assay [1] deals with Histone-lysine N-methyltransferase, H3 lysine-79 specific (Homo sapiens, UniProt Q8TEK3). In words: Affinity On-target Cellular interaction (Western Blot (reduction of H3K79 dimethylation in A431 cells by DOT1L)) EUB0000216b DOT1L. It counts as cell-based. Further details: mode of action Inhibitor, recommended concentration 1 uM. A general note: In western blotting, separated proteins are transferred to a membrane and probed.

Assay [2] concerns the target Transient receptor potential cation channel subfamily A member 1 (Homo sapiens, UniProt O75762). In words: Affinity On-target Cellular interaction (Electrophysiological assay (inhibition of AITC (allylthiocyanate, 100 µmol/L)-evoked currents in HEK293F cells transiently overexpressing hTRPA1)) EUB0000308b TRPA1. It is filed as cell-based. Further details: mode of action Antagonist, recommended concentration 1 uM.

A short description of assay [3]: Affinity On-target Cellular interaction (Cellular human mast cell degranulation assay) EUB0000714a SYK.
For assay [4], the target named is Bromodomain adjacent to zinc finger domain protein 2A (Homo sapiens, UniProt Q9UIF9). In words: Affinity On-target Cellular interaction (Chemoproteomic competition binding assay (endogenous full-length BAZ2A from HuT78 extracts)) EUB0000267b BAZ2A. Further details: mode of action Negative control for GSK2801, recommended concentration 1 uM.
Assay [5] deals with Bromodomain adjacent to zinc finger domain protein 2B (Homo sapiens, UniProt Q9UIF8). In words: Affinity On-target Cellular interaction (Chemoproteomic competition binding assay (endogenous full-length BAZ2B captured on the GSK8573 affinity matrix from HuT-78 cell lysate) ) EUB0000267b BAZ2B. The arrangement: mode of action Negative control for GSK2801, recommended concentration 1 uM.
Chain of Bromodomain adjacent to zinc finger domain protein 2B (Q9UIF8 whole entry, the tested form may be a part): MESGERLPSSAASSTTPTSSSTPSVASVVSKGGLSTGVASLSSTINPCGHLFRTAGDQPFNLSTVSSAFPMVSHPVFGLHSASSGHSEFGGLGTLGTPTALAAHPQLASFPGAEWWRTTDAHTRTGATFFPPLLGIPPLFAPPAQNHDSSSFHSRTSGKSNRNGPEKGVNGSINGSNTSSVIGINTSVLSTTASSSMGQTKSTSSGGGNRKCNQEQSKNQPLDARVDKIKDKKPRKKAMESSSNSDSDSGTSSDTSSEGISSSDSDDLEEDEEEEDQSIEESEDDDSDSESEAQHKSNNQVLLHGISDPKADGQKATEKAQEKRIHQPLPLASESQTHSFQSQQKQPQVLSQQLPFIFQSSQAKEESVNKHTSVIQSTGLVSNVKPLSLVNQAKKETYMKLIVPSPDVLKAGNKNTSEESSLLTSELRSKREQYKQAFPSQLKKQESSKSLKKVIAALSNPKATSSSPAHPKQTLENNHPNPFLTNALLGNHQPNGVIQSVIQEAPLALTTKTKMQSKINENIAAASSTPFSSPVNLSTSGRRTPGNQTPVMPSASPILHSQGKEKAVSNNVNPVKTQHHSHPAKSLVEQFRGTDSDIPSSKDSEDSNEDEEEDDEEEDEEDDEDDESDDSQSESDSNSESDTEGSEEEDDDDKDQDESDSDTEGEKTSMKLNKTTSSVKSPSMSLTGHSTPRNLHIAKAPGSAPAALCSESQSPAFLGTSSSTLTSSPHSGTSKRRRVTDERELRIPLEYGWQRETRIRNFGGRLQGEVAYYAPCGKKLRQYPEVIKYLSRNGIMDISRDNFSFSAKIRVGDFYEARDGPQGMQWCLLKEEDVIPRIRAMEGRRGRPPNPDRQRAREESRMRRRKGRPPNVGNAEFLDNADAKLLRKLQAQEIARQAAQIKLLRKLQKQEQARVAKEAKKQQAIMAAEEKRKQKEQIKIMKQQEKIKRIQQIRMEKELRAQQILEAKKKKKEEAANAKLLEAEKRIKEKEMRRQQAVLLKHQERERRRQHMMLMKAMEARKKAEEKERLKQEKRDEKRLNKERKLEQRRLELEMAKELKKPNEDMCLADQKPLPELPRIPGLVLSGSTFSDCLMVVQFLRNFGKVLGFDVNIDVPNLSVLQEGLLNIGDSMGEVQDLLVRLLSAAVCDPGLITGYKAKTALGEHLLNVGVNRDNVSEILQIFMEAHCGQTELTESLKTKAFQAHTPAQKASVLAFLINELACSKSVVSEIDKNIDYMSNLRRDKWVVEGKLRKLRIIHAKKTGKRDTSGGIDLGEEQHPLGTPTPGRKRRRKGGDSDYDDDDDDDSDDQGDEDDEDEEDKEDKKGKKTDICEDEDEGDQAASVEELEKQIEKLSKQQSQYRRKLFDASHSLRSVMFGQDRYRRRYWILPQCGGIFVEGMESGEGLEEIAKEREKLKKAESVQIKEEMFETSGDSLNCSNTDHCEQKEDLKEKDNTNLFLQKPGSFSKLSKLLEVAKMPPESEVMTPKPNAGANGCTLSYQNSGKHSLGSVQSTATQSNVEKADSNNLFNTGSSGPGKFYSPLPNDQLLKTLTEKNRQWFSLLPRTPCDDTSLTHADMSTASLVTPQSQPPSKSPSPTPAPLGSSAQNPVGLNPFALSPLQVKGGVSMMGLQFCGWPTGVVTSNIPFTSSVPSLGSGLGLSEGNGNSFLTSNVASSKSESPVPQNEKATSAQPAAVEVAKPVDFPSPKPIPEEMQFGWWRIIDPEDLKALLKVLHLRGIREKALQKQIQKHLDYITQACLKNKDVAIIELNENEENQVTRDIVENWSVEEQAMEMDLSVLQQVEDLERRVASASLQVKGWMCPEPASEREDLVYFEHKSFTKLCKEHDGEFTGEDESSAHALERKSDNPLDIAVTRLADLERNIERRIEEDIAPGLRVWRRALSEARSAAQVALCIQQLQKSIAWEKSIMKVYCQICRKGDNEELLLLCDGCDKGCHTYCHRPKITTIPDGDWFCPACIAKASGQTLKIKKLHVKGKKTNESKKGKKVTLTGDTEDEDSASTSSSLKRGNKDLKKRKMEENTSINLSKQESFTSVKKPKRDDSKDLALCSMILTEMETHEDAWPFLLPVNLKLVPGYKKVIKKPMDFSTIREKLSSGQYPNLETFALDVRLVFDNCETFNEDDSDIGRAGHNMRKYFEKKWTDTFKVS

The target in assay [6] is Histone acetyltransferase KAT2A (Homo sapiens, UniProt Q92830). As to the kind of experiment: Affinity On-target Cellular interaction (Competing pull-down assay (full-length GCN5 from cell lysates using immobilized L-Moses)) EUB0000218c KAT2A. Further details: mode of action Inhibitor, recommended concentration 1 uM.
The target of assay [7] is Histone acetyltransferase KAT2B (Homo sapiens, UniProt Q92831). In words: Affinity On-target Cellular interaction (Competing pull-down assay (full-length PCAF from cell lysates using immobilized L-Moses)) EUB0000218c KAT2B. Further details: mode of action Inhibitor, recommended concentration 1 uM.
Chain of Histone acetyltransferase KAT2B (Q92831 whole entry): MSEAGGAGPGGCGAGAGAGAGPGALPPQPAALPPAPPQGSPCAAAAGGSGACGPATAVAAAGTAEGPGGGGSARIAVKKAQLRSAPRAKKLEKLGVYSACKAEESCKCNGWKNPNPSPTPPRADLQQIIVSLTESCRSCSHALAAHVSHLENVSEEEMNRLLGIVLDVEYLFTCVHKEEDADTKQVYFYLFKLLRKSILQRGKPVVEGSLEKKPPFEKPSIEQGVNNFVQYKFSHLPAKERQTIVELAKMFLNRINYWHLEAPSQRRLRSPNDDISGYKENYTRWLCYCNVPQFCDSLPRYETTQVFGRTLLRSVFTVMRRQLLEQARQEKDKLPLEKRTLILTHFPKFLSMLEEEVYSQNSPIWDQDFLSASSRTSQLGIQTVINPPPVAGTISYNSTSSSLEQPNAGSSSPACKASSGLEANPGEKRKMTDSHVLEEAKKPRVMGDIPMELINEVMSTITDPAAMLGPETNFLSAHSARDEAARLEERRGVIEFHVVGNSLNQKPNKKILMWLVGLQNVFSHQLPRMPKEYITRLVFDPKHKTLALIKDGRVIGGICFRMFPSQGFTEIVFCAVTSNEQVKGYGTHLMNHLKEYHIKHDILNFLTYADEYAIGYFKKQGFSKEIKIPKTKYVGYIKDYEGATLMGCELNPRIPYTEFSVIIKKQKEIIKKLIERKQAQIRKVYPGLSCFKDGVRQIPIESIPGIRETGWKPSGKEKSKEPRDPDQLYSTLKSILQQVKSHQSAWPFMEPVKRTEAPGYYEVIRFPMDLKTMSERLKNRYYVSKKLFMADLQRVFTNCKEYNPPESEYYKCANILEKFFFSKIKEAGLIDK
The target of assay [8] is RAC-alpha serine/threonine-protein kinase (Homo sapiens, UniProt P31749). In words: Affinity On-target Cellular interaction (NanoBRET assay (HEK293T cells)) EUB0000721a AKT1. (In general: BRET reads energy transfer from a luciferase to a nearby fluorophore.)
For assay [9], the target named is RAC-beta serine/threonine-protein kinase (Homo sapiens, UniProt P31751). In words: Affinity On-target Cellular interaction (NanoBRET assay (HEK293T cells)) EUB0000721a AKT2.
Assay [10] deals with RAC-gamma serine/threonine-protein kinase (Homo sapiens, UniProt Q9Y243). As to the kind of experiment: Affinity On-target Cellular interaction (NanoBRET assay (HEK293T cells)) EUB0000721a AKT3.
For assay [11], the target named is Tyrosine-protein kinase JAK3 (Homo sapiens, UniProt P52333). As to the kind of experiment: Affinity On-target Cellular interaction (NanoBRET assay (HEK293T cells)) EUB0000007b JAK3. The arrangement: mode of action Negative control for FM-381, recommended concentration 100 nM.
Assay [12] has as its target T1, Dual specificity protein kinase CLK1 (Homo sapiens, UniProt P49759). In words: Affinity On-target Cellular interaction (NanoBRET assay (HEK293T cells)) EUB0000321b CLK1. Further details: mode of action Inhibitor, recommended concentration 100 nM.
For assay [13], the target named is T2, Dual specificity protein kinase CLK4 (Homo sapiens, UniProt Q9HAZ1). In words: Affinity On-target Cellular interaction (NanoBRET assay (HEK293T cells)) EUB0000321b CLK4. Further details: mode of action Inhibitor, recommended concentration 100 nM.
T2 sequence (Q9HAZ1 whole entry): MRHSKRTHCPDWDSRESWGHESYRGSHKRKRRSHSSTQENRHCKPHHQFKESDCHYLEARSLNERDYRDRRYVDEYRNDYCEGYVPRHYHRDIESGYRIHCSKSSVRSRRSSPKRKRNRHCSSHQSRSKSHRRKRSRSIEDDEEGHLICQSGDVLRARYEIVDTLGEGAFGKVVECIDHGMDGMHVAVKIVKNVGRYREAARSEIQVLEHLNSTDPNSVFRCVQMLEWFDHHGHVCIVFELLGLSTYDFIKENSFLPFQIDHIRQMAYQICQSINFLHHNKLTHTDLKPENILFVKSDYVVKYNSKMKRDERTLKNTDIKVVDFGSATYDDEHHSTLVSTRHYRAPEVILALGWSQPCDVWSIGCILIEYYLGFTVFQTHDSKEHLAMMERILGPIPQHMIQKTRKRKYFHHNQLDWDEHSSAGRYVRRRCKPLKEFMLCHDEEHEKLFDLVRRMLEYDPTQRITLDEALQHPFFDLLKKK
The target in assay [14] is Bifunctional epoxide hydrolase 2 (Homo sapiens, UniProt P34913). In words: Affinity On-target Cellular interaction (ELISA (inhibition of sEH in human Hep G2 cells)) EUB0000542a EPHX2. The arrangement: mode of action Inhibitor, recommended concentration 100 nM. It counts as cell-based.
For assay [15], the target named is Lutropin-choriogonadotropic hormone receptor (Homo sapiens, UniProt P22888). As to the kind of experiment: Affinity On-target Cellular interaction (Cell-based assay (LH Antagonism)) EUB0000340a LHCGR. Further details: mode of action Negative control for BAY-899, recommended concentration 1 uM.
Chain of Lutropin-choriogonadotropic hormone receptor (P22888 whole entry): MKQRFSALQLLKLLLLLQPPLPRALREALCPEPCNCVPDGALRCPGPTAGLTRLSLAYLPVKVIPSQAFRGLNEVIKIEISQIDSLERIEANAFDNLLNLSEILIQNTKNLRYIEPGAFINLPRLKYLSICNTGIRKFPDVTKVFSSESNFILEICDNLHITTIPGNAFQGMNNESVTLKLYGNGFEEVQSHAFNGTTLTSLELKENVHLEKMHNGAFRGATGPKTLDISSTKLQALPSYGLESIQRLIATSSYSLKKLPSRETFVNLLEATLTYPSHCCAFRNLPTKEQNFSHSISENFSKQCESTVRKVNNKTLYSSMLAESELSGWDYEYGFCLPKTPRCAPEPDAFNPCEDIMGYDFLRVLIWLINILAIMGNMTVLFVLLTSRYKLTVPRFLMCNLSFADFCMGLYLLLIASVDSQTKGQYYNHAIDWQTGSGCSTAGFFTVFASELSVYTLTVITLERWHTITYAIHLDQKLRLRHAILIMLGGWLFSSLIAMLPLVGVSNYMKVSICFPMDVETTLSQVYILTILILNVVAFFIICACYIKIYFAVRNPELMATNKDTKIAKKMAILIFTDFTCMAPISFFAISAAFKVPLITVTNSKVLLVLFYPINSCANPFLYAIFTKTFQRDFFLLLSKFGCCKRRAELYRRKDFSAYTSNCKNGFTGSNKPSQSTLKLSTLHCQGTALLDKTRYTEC
Assay [16] has as its target T3, Nucleosome-remodeling factor subunit BPTF (Homo sapiens, UniProt Q12830). As to the kind of experiment: Affinity On-target Cellular interaction (NanoBRET assay (HEK293T cells)) EUB0000254b BPTF. The arrangement: mode of action Negative control for NVS-BPTF-1, recommended concentration 1 uM.
For assay [17], the target named is T1, Dual specificity protein kinase CLK1. In words: Affinity On-target Cellular interaction (NanoBRET assay (HEK293T cells)) EUB0000705a CLK1.
Assay [18] addresses Dual specificity protein kinase CLK2 (Homo sapiens, UniProt P49760). As to the kind of experiment: Affinity On-target Cellular interaction (NanoBRET assay (HEK293T cells)) EUB0000705a CLK2.
Assay [19] addresses T2, Dual specificity protein kinase CLK4. As to the kind of experiment: Affinity On-target Cellular interaction (NanoBRET assay (HEK293T cells)) EUB0000705a CLK4.
For assay [20], the target named is T3, Nucleosome-remodeling factor subunit BPTF.
Assay [21] addresses Mitogen-activated protein kinase 1 (Homo sapiens, UniProt P28482). As to the kind of experiment: Affinity On-target Cellular interaction (Cellular assay (inhibition of RSK phosphorylation, A375SM cells)) EUB0000700a MAPK1.
Assay [22] in a line: Affinity On-target Cellular interaction (Binding assay in HEK293 cells) EUB0000337aCl P2RY14.

T1 sequence (P49759 whole entry): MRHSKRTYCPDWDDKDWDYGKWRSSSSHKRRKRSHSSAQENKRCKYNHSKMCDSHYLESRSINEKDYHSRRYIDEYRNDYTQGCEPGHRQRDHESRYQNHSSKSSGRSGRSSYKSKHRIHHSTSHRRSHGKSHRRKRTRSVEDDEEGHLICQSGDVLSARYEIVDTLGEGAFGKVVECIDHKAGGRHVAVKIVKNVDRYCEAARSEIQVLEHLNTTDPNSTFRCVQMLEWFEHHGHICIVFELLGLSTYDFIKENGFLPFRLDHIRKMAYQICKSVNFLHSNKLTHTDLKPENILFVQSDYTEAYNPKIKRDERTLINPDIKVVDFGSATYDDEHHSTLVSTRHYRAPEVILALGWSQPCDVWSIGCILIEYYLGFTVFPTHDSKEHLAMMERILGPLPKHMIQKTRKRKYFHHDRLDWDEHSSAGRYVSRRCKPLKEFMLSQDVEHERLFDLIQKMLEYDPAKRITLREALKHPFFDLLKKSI
Chain of Mitogen-activated protein kinase 1 (P28482 whole entry): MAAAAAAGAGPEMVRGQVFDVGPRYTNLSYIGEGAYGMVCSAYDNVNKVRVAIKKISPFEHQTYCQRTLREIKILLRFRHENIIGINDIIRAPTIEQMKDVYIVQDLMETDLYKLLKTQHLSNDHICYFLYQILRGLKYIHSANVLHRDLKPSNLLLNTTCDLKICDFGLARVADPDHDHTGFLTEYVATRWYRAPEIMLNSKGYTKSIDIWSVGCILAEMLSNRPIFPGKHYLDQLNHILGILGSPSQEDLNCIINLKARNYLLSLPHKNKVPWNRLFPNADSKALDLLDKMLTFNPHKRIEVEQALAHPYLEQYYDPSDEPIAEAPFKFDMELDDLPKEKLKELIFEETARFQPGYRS

Broadly, the IC50 is the concentration that inhibits the measured activity by half. The low end stands for inhibition by little substance, the high end for a need for much substance. In assay [1], `CC(C)N(CCCNC(=O)Nc1ccc(C(C)(C)C)cc1)C[C@H]1O[C@@H](n2cc(Br)c3c(N)ncnc32)[C@H](O)[C@@H]1O` displayed an IC50 of 2.6 nM.

`Clc1cccc(-c2nnnn2Cc2cccnc2)c1Cl` had an IC50 in [2] of 51 nM.

With `Cc1cc(Nc2nccc(C)n2)cc(-c2cnc([C@@]3(O)CC[C@H](C(=O)O)C(C)(C)C3)s2)c1` [MRL-SYKi], the IC50 in assay [3] was 38 nM.

Usually Kd stands for the constant that tells how readily two partners part at equilibrium. The low end stands for a tighter complex, the high end for a looser complex. Turning to `CCCOc1ccn2c(C(C)=O)cc(-c3cccc(OC)c3)c2c1`, the Kd in [4] and in [5] was over 10000 nM throughout.

Consider `Cc1nnc2c3ccccc3c(N[C@@H](C)[C@H](c3ccccc3)N(C)C)nn12`, for which the IC50 is 220 nM in assay [6] and 660 nM in assay [7].

On to `C=CC(=O)Nc1ccc2[nH]c(=O)n(C3CCN(C(=O)c4ccc(-c5nc6cc[nH]c(=O)c6cc5-c5ccccc5)cc4)CC3)c2c1`, for which the IC50 was determined as 1900 nM in [8], 8300 nM in assay [9] and 18000 nM in assay [10].

The molecule `CN(C)C(=O)/C(C#N)=C/c1ccc(-c2nc3cnc4c(ccn4C)c3n2C2CCCCC2)o1` gave an IC50 in [11] of over 10000 nM.

Regarding `CN1CCN(C(=O)C(C)(C)c2ccc(C(=O)Nc3cn4cc(-c5ccncc5)ccc4n3)cc2)CC1` [T3-CLK], the IC50 is 4 nM in assay [12] and over 2 nM in assay [13].

Take `CCOCCn1cc(C(=O)Nc2ccc(-n3nc(-c4cccnc4)cc3C(F)(F)F)cn2)ccc1=O` [BI 1935]: in assay [14], the IC50 was under 1 nM.

Regarding `O=C(Nc1ccc(Oc2ccc(F)cc2)cc1)N1CCc2ncccc2[C@H]1c1ccc(F)cc1` [BAY-897], the IC50 in assay [15] is over 16000 nM.

On to `Cc1c(Nc2ccc(S(=O)(=O)N3CCN(C)CC3)cc2F)nc2ccc(Nc3cnn(C4CC4)c3)cn2c1=O`, for which the IC50 in [16] was over 10000 nM.

With `CN1CCN(C(=O)C(C)(C)c2ccc(C(=O)Nc3cn4cc(-c5cc(C(C)(C)C)cc(C(C)(C)C)c5)ccc4n3)cc2)CC1` [T3-CLK-N], the IC50 in assay [17], in assay [18] and in assay [19] was over 10000 nM in each case.

For `Cc1c(Nc2ccc(S(=O)(=O)N3CCN(C)CC3)cc2F)nc2ccc(-c3cnn(C4CC4)c3)cn2c1=O`, in assay [20], the IC50 stood at 16 nM. That is a double-digit nanomolar value.

`C[C@H](NC(=O)Nc1cc2[nH]ncc2c(CO)n1)c1ccccn1` [ERKi-NC] displayed an IC50 in [21] of over 10000 nM.

In general, Ki refers to a dissociation constant, usually derived from enzyme kinetics or from competition with a known ligand. Low values mean a stronger hold on the target, high ones a looser hold on the target. The molecule `Cc1c(C(=O)O)cc(-c2ccc(C3CCNCC3)cc2)c2ccc(-c3ccc(C(F)(F)F)cc3)cc12` gave an inhibition constant (Ki) in [22] of 8610 nM.

The values are drawn from ChEMBL document CHEMBL5210121, “Affinity On-target Cellular Literature for EUbOPEN Chemogenomics Library wave 3” (2023).
